Results published in patent publication US6509369B2, “Anti-inflammatory compounds” (Ortho-McNeil Pharmaceutical, Inc., priority 1997, dated 2003).

molecular target: T1, human glucocorticoid receptor (hGR) (Homo sapiens, UniProt P04150); test: human glucocorticoid receptor binding assay (displacement of 3(H) Triamcinolone acetonide); conditions: not given
T1 construct: made in house; host or cells: Sf21 insect cells infected with baculovirus hGR, OR IM9 lymphoblast cell line (endogenous hGR)
T1 sequence (P04150 1-777): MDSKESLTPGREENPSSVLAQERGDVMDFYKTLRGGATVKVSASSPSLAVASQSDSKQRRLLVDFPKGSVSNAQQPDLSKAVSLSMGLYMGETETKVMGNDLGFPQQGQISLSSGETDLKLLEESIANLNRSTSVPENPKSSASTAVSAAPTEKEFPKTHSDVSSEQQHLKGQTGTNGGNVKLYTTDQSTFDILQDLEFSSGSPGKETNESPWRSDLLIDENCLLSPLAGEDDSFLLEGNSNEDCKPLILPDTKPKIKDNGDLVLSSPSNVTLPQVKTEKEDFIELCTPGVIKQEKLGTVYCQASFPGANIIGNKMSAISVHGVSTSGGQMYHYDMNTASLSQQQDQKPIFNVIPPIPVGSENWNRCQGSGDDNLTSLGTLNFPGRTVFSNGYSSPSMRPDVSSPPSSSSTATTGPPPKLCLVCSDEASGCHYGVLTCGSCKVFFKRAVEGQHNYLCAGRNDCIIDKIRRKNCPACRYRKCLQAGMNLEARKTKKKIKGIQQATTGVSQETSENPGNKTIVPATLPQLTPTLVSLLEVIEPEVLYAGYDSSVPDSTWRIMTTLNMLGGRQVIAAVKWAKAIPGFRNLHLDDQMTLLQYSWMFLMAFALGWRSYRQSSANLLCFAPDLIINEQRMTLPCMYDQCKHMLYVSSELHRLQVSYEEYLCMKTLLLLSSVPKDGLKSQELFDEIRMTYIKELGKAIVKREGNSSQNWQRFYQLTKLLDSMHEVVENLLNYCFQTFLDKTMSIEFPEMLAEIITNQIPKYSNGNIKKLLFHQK
Procedure: A human glucocorticoid receptor binding assay was carried out to determine the extent to which the compounds of this invention have the ability to bind to human glucocorticoid receptors. This binding ability may be indicative of the antiinflammatory activity of the compound. The test was carried out as follows.
Human glucocorticoid receptors were prepared from either insect cells (Sf21) infected with baculovirus hGR or from a lymphoblast cell line which expresses high levels of endogenous hGR (IM9). The receptor binding reactions, with or without test compounds, were set up in 96-well microtiter plates which were previously siliconized with SIGMACOTE™, a chlorinated organopolysiloxane in heptane. The binding components, 3(H) Triamcinolone acetonide (TAA), glycerol/molybdate-containing buffer and unlabeled compounds were added to the wells using a combination of BIOMEK laboratory automation system and repeat pipettes. After four hours of incubation, the samples were precipitated with polyethylene glycol and filtered through Whatman GF/F paper using a TOMTEK cell harvester. The filter mate with 96 samples were bound to a solid-phase scintillant and directly counted in a BETAPLATE counter. […] The activity of test compounds to displace 3(H) TAA binding to hGR is also expressed as percent inhibition at 1 μM.

Structure (SMILES) | IC50
COc1ccc(CC(=O)NCC(c2ccccc2)C(c2ccccc2)c2ccccc2)cc1 (stereo not shown) [Compound 6] | 910 nM
O=C(Cc1ccc(Cl)c(Cl)c1)NCC(c1ccccc1)C(c1ccccc1)c1ccccc1 (stereo not shown) [Compound 9] | 1480 nM
O=C(NCC(c1ccccc1)C(c1ccccc1)c1ccccc1)C(c1ccccc1)c1ccccc1 (stereo not shown) [Compound 13] | 780 nM
O=C(CCc1ccccc1Cl)NCC(c1ccccc1)C(c1ccccc1)c1ccccc1 (stereo not shown) [Compound 22] | 103 nM
O=S(=O)(Cc1ccccc1)NCC(c1ccccc1)C(c1ccccc1)c1ccccc1 (stereo not shown) [Compound 25] | 210 nM
Cc1ccc(S(=O)(=O)NCC(c2ccccc2)C(c2ccccc2)c2ccccc2)cc1 (stereo not shown) [Compound 26] | 175 nM
O=C(CS(=O)(=O)c1ccccc1)NCC(c1ccccc1)C(c1ccccc1)c1ccccc1 (stereo not shown) [Compound 27] | 67 nM
Cc1ccc(S(=O)(=O)CC(=O)NCC(c2ccccc2)C(c2ccccc2)c2ccccc2)cc1 (stereo not shown) [Compound 28] | 57 nM
Cc1ccc(C(=O)NCC(c2ccccc2)C(c2ccccc2)c2ccccc2)s1 (stereo not shown) [Compound 30] | 50 nM
O=C(Cc1cccs1)NCC(c1ccccc1)C(c1ccc(F)cc1)c1ccc(F)cc1 (stereo not shown) [Compound 31] | 8 nM
O=C(Cc1cccs1)NCC(c1ccc(I)cc1)C(c1ccccc1)c1ccccc1 (stereo not shown) [Compound 33] | 8.6 nM
O=C(Cc1ccsc1)NCC(c1ccc(Cl)cc1)C(c1ccccc1)c1ccccc1 (stereo not shown) [Compound 35] | 54 nM
O=C(C=Cc1cccs1)NCC(c1ccccc1)C(c1ccccc1)c1ccccc1 (stereo not shown) [Compound 38] | 189 nM
O=C(C=Cc1ccsc1)NCC(c1ccccc1)C(c1ccccc1)c1ccccc1 (stereo not shown) [Compound 39] | 727 nM
O=S(=O)(NCC(c1ccc(Cl)cc1)C(c1ccccc1)c1ccccc1)c1cccs1 (stereo not shown) [Compound 41] | 491 nM
O=C(NCC(c1ccccc1)C(c1ccccc1)c1ccccc1)c1cc2ccccc2s1 (stereo not shown) [Compound 43] | 495 nM
CN(CC(c1ccccc1)C(c1ccccc1)c1ccccc1)C(=O)Cc1cccs1 (stereo not shown) [Compound 44] | 133 nM
O=C(NCC(c1ccccc1)C(c1ccccc1)c1ccccc1)Nc1ccccc1Cl (stereo not shown) [Compound 52] | 273 nM
O=C(NCC(c1ccccc1)C(c1ccccc1)c1ccccc1)Nc1ccccc1F (stereo not shown) [Compound 53] | 293 nM
O=C(NCc1ccccc1)NCC(c1ccccc1)C(c1ccccc1)c1ccccc1 (stereo not shown) [Compound 54] | 219 nM

Structure (SMILES) | IC50
O=C(NCc1ccc(Cl)cc1Cl)NCC(c1ccccc1)C(c1ccccc1)c1ccccc1 (stereo not shown) [Compound 55] | 121 nM
O=C(NCC(c1ccccc1)C(c1ccccc1)c1ccccc1)Oc1ccccc1 (stereo not shown) [Compound 56] | 310 nM
O=C(NCC(c1ccccc1)C(c1ccccc1)c1ccccc1)Oc1ccc(F)cc1 (stereo not shown) [Compound 58] | 240 nM
O=C(NCC(c1ccccc1)C(c1ccccc1)c1ccccc1)Oc1ccc2ccccc2c1 (stereo not shown) [Compound 59] | 155 nM
CCCC(=O)NCC(c1ccccc1)C(c1ccccc1)c1ccccc1 (stereo not shown) [Compound 60] | 446 nM
CC(C)C(=O)NCC(c1ccccc1)C(c1ccccc1)c1ccccc1 (stereo not shown) [Compound 61] | 584 nM
CCCCC(=O)NCC(c1ccccc1)C(c1ccccc1)c1ccccc1 (stereo not shown) [Compound 62] | 121 nM
CC(C)CC(=O)NCC(c1ccccc1)C(c1ccccc1)c1ccccc1 (stereo not shown) [Compound 63] | 316 nM
CC(C)(C)C(=O)NCC(c1ccccc1)C(c1ccccc1)c1ccccc1 (stereo not shown) [Compound 64] | 296 nM
CCOC(=O)CC(=O)NCC(c1ccccc1)C(c1ccccc1)c1ccccc1 (stereo not shown) [Compound 65] | 937 nM
O=C(Cc1ccccc1)NCC(c1ccccc1)C1c2ccccc2CCc2ccccc21 (stereo not shown) [Compound 73] | 770 nM
COc1ccccc1CCC(=O)NCC(c1ccccc1)C1c2ccccc2CCc2ccccc21 (stereo not shown) [Compound 74] | 388 nM
O=C(Cc1cccs1)NCC(c1ccccc1)C1c2ccccc2CCc2ccccc21 (stereo not shown) [Compound 75] | 363 nM
O=C(Cc1ccsc1)NCC(c1ccccc1)C1c2ccccc2CCc2ccccc21 (stereo not shown) [Compound 76] | 571 nM
Cc1ccc(C(=O)NCC(c2ccccc2)C2c3ccccc3CCc3ccccc32)s1 (stereo not shown) [Compound 77] | 882 nM
COc1ccccc1CCC(=O)NCC1(c2ccccc2)CC1(c1ccccc1)c1ccccc1 (stereo not shown) [Compound 81] | 709 nM
O=C(Cc1cccs1)NCC1(c2ccccc2)CC1(c1ccccc1)c1ccccc1 (stereo not shown) [Compound 88] | 425 nM
O=C(NCC1(c2ccccc2)CC1(c1ccccc1)c1ccccc1)c1cccs1 (stereo not shown) [Compound 90] | 612 nM
Cc1ccc(C(=O)NCC2(c3ccccc3)CC2(c2ccccc2)c2ccccc2)s1 (stereo not shown) [Compound 91] | 421 nM

same assay, conditions: concentration not given

Structure (SMILES) | hGR, value given as %
COc1ccccc1NC(=O)NCC(c1ccccc1)C(c1ccccc1)c1ccccc1 (stereo not shown) [Compound 51] | 32%
COc1ccccc1CC(=O)NCC(c1ccccc1)C1c2ccccc2-c2ccccc21 (stereo not shown) [Compound 67] | 23%
COc1ccccc1CCC(=O)NCC(c1ccccc1)C1c2ccccc2-c2ccccc21 (stereo not shown) [Compound 70] | 53%

tested on: oxazolone-induced ear swelling (MOCH) in albino male CD-1 mice; test: mouse oxazolone-induced contact hypersensitization (MOCH) ear swelling; type: in vivo; parameters: % Inhibition MOCH: concentration or dose not given beside the values; conditions: mouse, in vivo
Procedure: Several triphenylpropanamide compounds of this invention, having varying affinities for the human glucocorticoid receptor, were tested for topical antiinflammatory activity in mouse ear inflammation models. […] Compounds having receptor affinities closer to hydrocortisone were as nearly active as hydrocortisone in suppressing mouse oxazolone-induced contact hypersensitization (MOCH) and phorbol ester-induced ear edema. The in vivo studies of this example were conducted as follows.
In determining the MOCH using the compounds of this invention, albino male CD-1 mice, 7-9 weeks old were induced on the shaved abdomen with 50 μl of 3% oxazolone in acetone/corn oil (Day 0). On Day 5, a 20 μl volume of 2% oxazolone in acetone was applied to the dorsal left ear of the mouse . Compounds (made in ethanol/propylene glycol, 70:30) were applied to the left ear in 20 μl volume, one hour after oxazolone challenge. The right ear was not treated. The mice were sacrificed by carbon dioxide inhalation 24 hours after oxazolone challenge, the left and right ears were removed and a 7 mm biopsy was removed from each ear and weighed. The difference in biopsy weights between the right and left ears was calculated. Antiinflammatory effects of compounds were evident as an inhibition of the increase in ear weight.

Structure (SMILES) | % Inhibition MOCH
O=C(Cc1cccs1)NCC(c1ccc2c(c1)OCO2)C(c1ccccc1)c1ccccc1 (stereo not shown) [Compound 99] | 35%
Cc1c(CC(=O)NCC(c2ccc3c(c2)OCO3)C(c2ccccc2)c2ccccc2)sc2ccc(Cl)cc12 (stereo not shown) [Compound 100] | 18%
O=C(Cc1cc2cc(Cl)ccc2s1)NCC(c1ccc2c(c1)OCO2)C(c1ccccc1)c1ccccc1 (stereo not shown) [Compound 101] | 26%
O=C(Cc1ccccn1)NCC(c1ccc2c(c1)OCO2)C(c1ccccc1)c1ccccc1 (stereo not shown) [Compound 102] | 51%
O=C(Cc1cccc(C(F)(F)F)c1)NCC(c1ccc2c(c1)OCO2)C(c1ccccc1)c1ccccc1 (stereo not shown) [Compound 103] | 37%
O=C(Cc1cc(C(F)(F)F)cc(C(F)(F)F)c1)NCC(c1ccc2c(c1)OCO2)C(c1ccccc1)c1ccccc1 (stereo not shown) [Compound 104] | 52%
O=C(Cc1ccc([N+](=O)[O-])cc1)NCC(c1ccc2c(c1)OCO2)C(c1ccccc1)c1ccccc1 (stereo not shown) [Compound 105] | 24%
CCCCOc1ccc(CC(=O)NCC(c2ccc3c(c2)OCO3)C(c2ccccc2)c2ccccc2)cc1 (stereo not shown) [Compound 106] | 52%
COc1ccccc1CC(=O)NCC(c1ccc2c(c1)OCO2)C(c1ccccc1)c1ccccc1 (stereo not shown) [Compound 107] | 28%
COc1cc(CC(=O)NCC(c2ccc3c(c2)OCO3)C(c2ccccc2)c2ccccc2)cc(OC)c1 (stereo not shown) [Compound 108] | 38%
O=C(Cc1ccccc1)NCC(c1ccc2c(c1)OCO2)C(c1ccccc1)c1ccccc1 (stereo not shown) [Compound 109] | 22%
O=C(Cc1cccc(F)c1)NCC(c1ccc2c(c1)OCO2)C(c1ccccc1)c1ccccc1 (stereo not shown) [Compound 110] | 20%
O=C(Cc1ccc(F)cc1F)NCC(c1ccc2c(c1)OCO2)C(c1ccccc1)c1ccccc1 (stereo not shown) [Compound 111] | 60%

same assay, conditions: topical to mouse ear, 1 mg, one hour after oxazolone challenge, ear biopsy weight at 24 hours

Structure (SMILES) | Oxazolone Ear Swelling (MOCH) % inhibition vs. Vehicle at 1 mg
O=C(NCC(c1ccccc1)C(c1ccccc1)c1ccccc1)Nc1ccccc1 (stereo not shown) [Compound 50] | 30%
O=C(Cc1ccc(Cl)cc1)NCC(c1ccc2c(c1)OCO2)C(c1ccccc1)c1ccccc1 (stereo not shown) [Compound 98] | 85%

same assay, conditions: topical, mouse ear

Structure (SMILES) | topical antiinflammatory activity in the oxazolone model (in words)
O=C(Cc1ccc(Cl)cc1)NCC(c1ccc2c(c1)OCO2)C(c1ccccc1)c1ccccc1 (stereo not shown) [Compound 98] | equiactive with hydrocortisone
